Structures are written as SMILES. A value given as a limit tells only on which side of the number the result lay.

By Emax is commonly meant the greatest response seen or fitted, relative to the assay's reference.

The assay concerns beta-TC6 cells. The assay is described as follows: Insulin HTRF assay, relative activity Ar normalized to sunitinib. It is filed as cell-based. As to conditions: Mus musculus, normalized to positive control sunitinib (5 µM = 100%), Table 10. An outline of the steps:
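Relative activity Ar was scaled between 0% and 100% controls, with sunitinib at 5 µM f.c. as reference. Insulin released by beta-TC6 cells was quantified by sandwich HTRF (Eu-cryptate/XL665 antibodies, 120 min RT). Cells had been seeded 24 or 48 h, then treated 2–4 h at 37°C in induction buffer, 0.5% DMSO.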
A general note: TR-FRET usually uses a lanthanide donor and a delayed reading to cut background.
`COCCNc1ccc2ncc(-c3ccc(C(=O)Nc4ccc(OC)cc4)cc3)n2n1` [compound 7, 4-[6-(2-methoxyethylamino)imidazo[1,2-b]pyridazin-3-yl]-N-(4-methoxyphenyl)benzamide] gave an Emax of 20 to 50%.
For `CNc1ccc2ncc(-c3ccccc3O)n2n1` [compound 60, 2-[6-(methylamino)imidazo[1,2-b]pyridazin-3-yl]phenol], the Emax fell in the range of 20 to 50%.
Molecule `CC(C)Oc1cccc(-c2cn3c(-c4cccc(CO)c4)cnc3cn2)c1` [compound 380, [3-[6-(3-isopropoxyphenyl)imidazo[1,2-a]pyrazin-3-yl]phenyl]methanol] showed an Emax of 20 to 50%.
For the molecule `CSc1ccc(-c2cn3c(-c4cccc(CO)c4)cnc3cn2)cc1` [compound 377, [3-[6-(4-methylsulfanylphenyl)imidazo[1,2-a]pyrazin-3-yl]phenyl]methanol], the Emax was in the range of 20 to 50%.
In the case of `COc1cccc(-c2cn3c(NC(=O)Cc4ccsc4)cnc3cn2)c1` [compound 279, N-[6-(3-methoxyphenyl)imidazo[1,2-a]pyrazin-3-yl]-2-(3-thienyl)acetamide], the Emax was in the range of 20 to 50%.
In turn, `CS(=O)(=O)Nc1cccc(-c2cnc3ccc(Cc4ccc(F)cc4)nn23)c1` [compound 159, N-[3-[6-[(4-fluorophenyl)methyl]imidazo[1,2-b]pyridazin-3-yl]phenyl]methanesulfonamide] had an Emax of 10 to 20%.
In turn, `CC(=O)c1ccc(-c2cn3c(-c4ccc(C(=O)NC5CC5)cc4)cnc3cn2)s1` [compound 434, 4-[6-(5-acetyl-2-thienyl)imidazo[1,2-a]pyrazin-3-yl]-N-cyclopropyl-benzamide] showed an Emax of 20 to 50%.
Molecule `Clc1cccc(-c2cn3c(-c4ccc5c(c4)OCO5)cnc3cn2)c1` [compound 303, 3-(1,3-benzodioxol-5-yl)-6-(3-chlorophenyl)imidazo[1,2-a]pyrazine] yielded an Emax of 50 to 100%.
In the case of `CN1CCN(c2ccc(-c3cnc4cccnn34)cn2)CC1` [compound 69, 3-[6-(4-methylpiperazin-1-yl)-3-pyridyl]imidazo[1,2-b]pyridazine] it was 10 to 20%; in that of `CN(C)c1ccc(-c2cnc3cnc(-c4ccc(CO)cc4)cn23)cc1` [compound 287, [4-[3-(4-dimethylaminophenyl)imidazo[1,2-a]pyrazin-6-yl]phenyl]methanol], 50 to 100%.
The value for `CC(=O)Nc1cccc(-c2ccc3nnc(-c4ccccc4)n3c2)c1` [compound 165, N-[3-(3-phenyl-[1,2,4]triazolo[4,3-a]pyridin-6-yl)phenyl]acetamide] was 50 to 100%.
Take `FC(F)(F)c1cccc(-c2cnc3ccc(C4CC4)nn23)c1` [compound 136, 6-cyclopropyl-3-[3-(trifluoromethyl)phenyl]imidazo[1,2-b]pyridazine]: the Emax was 10 to 20%.
In the case of `CN(C)CCNC(=O)c1cccc(-c2ccc3nnc(-c4ccc5nccnc5c4)n3c2)c1` [compound 242, N-(2-dimethylaminoethyl)-3-(3-quinoxalin-6-yl-[1,2,4]triazolo[4,3-a]pyridin-6-yl)benzamide] it was no less than 100%; in that of `COc1ccc(-c2ccc3nnc(-c4ccc(OCCCN(C)C)cc4)n3c2)cc1OC` [compound 236, 3-[4-[6-(3,4-dimethoxyphenyl)-[1,2,4]triazolo[4,3-a]pyridin-3-yl]phenoxy]-N,N-dimethyl-propan-1-amine], 50 to 100%; in that of `Clc1cccc(-c2nnc3ccc(-c4ncccn4)cn23)c1` [compound 204, 3-(3-chlorophenyl)-6-pyrimidin-2-yl-[1,2,4]triazolo[4,3-a]pyridine], 10 to 20%.
In the case of `NC(=O)c1ccc(-c2cnc3ccc(Cc4ccc(F)c(F)c4)nn23)cc1` [compound 145, 4-[6-[(3,4-difluorophenyl)methyl]imidazo[1,2-b]pyridazin-3-yl]benzamide] it was 20 to 50%; in that of `Fc1cccc(-c2ccc3ncc(-c4ccc5c(c4)OCO5)n3n2)c1` [compound 104, 3-(1,3-benzodioxol-5-yl)-6-(3-fluorophenyl)imidazo[1,2-b]pyridazine], 20 to 50%.

Source of the values: patent EP2818471A1, “Nitrogen bicyclic compounds as inhibitors for Scyl1 and Grk5” (Max-Planck-Gesellschaft zur Förderung der Wissenschaften …, priority 2013, dated 2014).
